Assay results taken from article PMC7065246 (Journal of the American Chemical Society, 2020).

Legend:
PhqK [1] = target: T1, PhqK (Penicillium fellutanum, UniProt L0E4H0); test: crystal structures; type: binding; conditions: out conformation with and without substrate
PhqK [2] = target: T1, PhqK; test: Michaelis-Menten kinetics of spirocyclization; type: biochemical; conditions: FAD-dependent monooxygenase reaction; details in supplement

T1 sequence (L0E4H0 whole entry): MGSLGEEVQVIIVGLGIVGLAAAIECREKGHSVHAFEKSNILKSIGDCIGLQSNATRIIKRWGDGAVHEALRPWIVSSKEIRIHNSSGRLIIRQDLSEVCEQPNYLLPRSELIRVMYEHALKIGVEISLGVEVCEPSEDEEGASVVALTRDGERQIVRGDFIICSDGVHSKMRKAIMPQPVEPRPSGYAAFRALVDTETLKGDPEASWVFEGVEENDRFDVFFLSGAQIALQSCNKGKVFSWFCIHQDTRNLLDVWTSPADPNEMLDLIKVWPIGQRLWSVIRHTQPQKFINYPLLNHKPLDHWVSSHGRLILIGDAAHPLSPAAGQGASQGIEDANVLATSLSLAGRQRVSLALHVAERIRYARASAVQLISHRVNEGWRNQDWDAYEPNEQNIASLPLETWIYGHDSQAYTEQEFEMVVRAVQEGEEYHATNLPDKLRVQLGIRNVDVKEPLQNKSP

Compound | crystal structures (ligand-free 1.71 Å and substrate complexes) (PhqK [1]) | Km (PhqK [2]) [µM]
Cc1cc2nc3c(=O)[nH]c(=O)nc-3n(C[C@H](O)[C@H](O)[C@H](O)COP(=O)(O)OP(=O)(O)OC[C@H]3O[C@@H](n4cnc5c(N)ncnc54)[C@H](O)[C@@H]3O)c2cc1C [FAD] | substrate bound and unbound PhqK structures, the flavin was observed in the “out” conformation | 
paraherquamide L [compound 15] |  | 19.4 ± 5.2
